Source: US20120220594A1, “METHODS FOR TREATING CANCER IN PATIENTS HAVING IGF-1R INHIBITOR RESISTANCE” (Bristol-Meyers Squibb Company, priority 2009, published 2012)
Read-outs that look alike come from different tables or passages of the source. Values belong to the molecule of their own block, whether it stands above or below them.

Tests used:
Rh41 cells = assay: 3H-thymidine incorporation cell proliferation assay in parental Rh41 cells; format: cell-based, human
Text: (§1) Human rhabdomyosarcoma cell line Rh41 was provided by Dr. Lee Helman and grown in RPMI medium plus GLUTAMAX® supplemented with 10% fetal bovine serum (FBS), 10 mmol/L HEPES, penicillin, and streptomycin.

Rh41-807R cells = assay: 3H-thymidine incorporation cell proliferation assay in BMS-754807-resistant Rh41-807R cells; format: cell-based, human
Text: as §1

Rh41-MAB391R cells = assay: 3H-thymidine incorporation cell proliferation assay in MAB391-resistant Rh41-MAB391R cells; format: cell-based, human; conditions: for IC50: read-out: IC50 (nM) Rh41-MAB391R
Text: Human rhabdomyosarcoma cell line Rh41 was provided by Dr. Lee Helman and grown in RPMI medium plus GLUTAMAX® supplemented with 10% fetal bovine serum (FBS), 10 mmol/L HEPES, penicillin, and streptomycin. To develop acquired resistant cells to either BMS-754807, or mAB391 (R&D Systems, Inc., Minneapolis, Minn.), the sensitive Rh41 cells were exposed to the corresponding drug at the IC50 concentration and then at gradually increasing concentrations every other culture passage. The IC50 value to the compound was measured periodically during this treatment time until the resistance level reached a plateau.
(§2) Human rhabdomyosarcoma cell line Rh41 was chosen in this study to develop acquired resistance because it expresses IGF-1R (Huang et al., Cancer Res., 69(1):161-170 (Jan. 1, 2009)), the target of BMS-754807 and MAB391; and is sensitive to both drugs (Carboni et al., Proceedings of the 100th Annual Meeting of the American Association for Cancer Research, 2009 Apr. 18-22; Denver, Colo., Abstract No. 1742). The acquired-resistant Rh41-807R and Rh41-MAB391R cell lines were developed using a stepwise exposure to increasing concentrations of either IGF-1R/IR inhibitor BMS-754807 or IGF-1R antibody MAB391 for extended periods of time until a resistance plateau was reach. […];

SW403 cells = assay: 3H-thymidine incorporation cell proliferation assay in SW403 cells; format: cell-based; conditions: Homo sapiens, SW-403
Method: (§3) Cells were plated at an optimized density in 96-well plates, incubated overnight at 37° C., and then exposed to a serial dilution of the drugs. After 72 hours incubation, cells were pulsed with 4 μCi/ml [^3H]-thymidine (Amersham Pharmacia Biotech, UK) for 3 hours, trypsinized, harvested onto […] ®-96 GF/B plates (PerkinElmer, Boston, Mass.); scintillation was measured on a TOPCOUNTO NXT (Packard, Conn.). […] The mean IC50 and standard deviation from multiple tests for each cell line were calculated.

Rh41-807Rout cells = assay: Cell proliferation assay in Rh41-807Rout cells (out of drug selection for 3 months); format: cell-based, human; conditions: out of drug selection for 3 months of passages
Text: as §2

[1] = system: Rh41-807R xenograft tumors; assay: In vivo xenograft tumor growth inhibition, Rh41-807R; conditions: Rh41-807R xenograft tumors in nude mice
Method: (§4) Tumor volume was measured to assess tumor growth inhibition.

Rh41 xenograft tumors = assay: In vivo xenograft tumor growth inhibition, Rh41; conditions: Rh41 xenograft tumors in nude mice
Method: as §4

MCF-7-807R cells = assay: 3H-thymidine incorporation cell proliferation assay in MCF-7-807R cells
Method: as §3

SW403-807R cells = assay: 3H-thymidine incorporation cell proliferation assay in SW403-807R cells; format: cell-based
Method: as §3

[2] = system: Rh41-807R cells with PDGFR-α knockdown; assay: Proliferation assay in Rh41-807R cells transfected with PDGFR-α specific siRNA; conditions: Rh41-807R cells treated with PDGFR-α siRNA
Method: (§5) RISC-free siRNA was transfected as the negative control (Dharmacon). Following the addition of the drugs, cells were incubated at 37° C. for 72 hours before cell growth was measured by incorporation of ^3H-thymidine as described for in vitro cellular proliferation assays.

PDGFRα RNA in Rh41 cells = assay: Induction of PDGFRα expression in sensitive parental Rh41 cells (qRT-PCR); format: cell-based, human
Method: FIGS. 3A-F show expression pattern comparisons of selected genes/proteins that uniquely changed expression only in 807R or in MAB391R. […] Insert: PDGFR-α protein expression pattern as detected by western blot. […] Cells starved for 24 hr, then stimulated with or without 50 ng/ml PDGF ligand fro 5 min. Cells were lyzed and 30 ug of total protein was used for western blot analyses. […] Insert: AXL protein expression as detected by western blot. […] Cells treated with 10 nM and 50 nM of BMS-754807 for 1, 2, 4, 8 and 24 hrs. PDGFRα RNA levels were measured by qRT-PCR and compared to the untreated time 0 control.
Comparing genes expression profiles, the inventors found there were some key signaling pathways that were differentially expressed in Rh41-807R and Rh41-MAB391R cells. An interesting example was PDGFR-α, which had >89 fold increase in RNA expression in Rh41-807R cells but not in Rh41-MAB391R compared to the parental; and the induction of PDGFR-α was persistent even in cells out of BMS-754807 selection for 3 months (FIG. 3A). The expression pattern was also confirmed at protein levels (FIG. 3A); PDGFR-α was also constitutively activated in Rh41-807R cells (FIG. 3B). […] Other genes such as c-KIT, FGFR2 and EPHA3 had similar expression pattern as PDGFR-α (FIG. 3C). Several Eph receptor family members such as EPHA3, EPHA4 and EPHB2 as well as ligand EFNA3 were overexpressed in 807R.

Geo cells = assay: 3H-thymidine incorporation cell proliferation assay in Geo cells; format: cell-based
Method: as §3

[3] = system: Rh41 cells with PDGFR-α knockdown; assay: Proliferation assay in Rh41 cells transfected with PDGFR-α specific siRNA; conditions: Rh41 sensitive parental cells
Method: as §5

Rh1-807R cells = assay: 3H-thymidine incorporation cell proliferation assay in Rh1-807R cells; format: cell-based
Method: as §3

Rh1 cells = assay: 3H-thymidine incorporation cell proliferation assay in Rh1 cells; format: cell-based; conditions: Homo sapiens, RH-1
Method: as §3

GEO-807R cells = assay: 3H-thymidine incorporation cell proliferation assay in GEO-807R cells; format: cell-based
Method: as §3

[4] = target: type I-IGF receptor (IGF-1R), as expressed by human rhabdomyosarcoma Rh41 cells and the derived resistant lines (human) (UniProt P08069); assay: cell-based or functional assay
type I-IGF receptor (IGF-1R), as expressed by human rhabdomyosarcoma Rh41 cells and the derived resistant lines (human), sequence (P08069 31-1367, change not shown): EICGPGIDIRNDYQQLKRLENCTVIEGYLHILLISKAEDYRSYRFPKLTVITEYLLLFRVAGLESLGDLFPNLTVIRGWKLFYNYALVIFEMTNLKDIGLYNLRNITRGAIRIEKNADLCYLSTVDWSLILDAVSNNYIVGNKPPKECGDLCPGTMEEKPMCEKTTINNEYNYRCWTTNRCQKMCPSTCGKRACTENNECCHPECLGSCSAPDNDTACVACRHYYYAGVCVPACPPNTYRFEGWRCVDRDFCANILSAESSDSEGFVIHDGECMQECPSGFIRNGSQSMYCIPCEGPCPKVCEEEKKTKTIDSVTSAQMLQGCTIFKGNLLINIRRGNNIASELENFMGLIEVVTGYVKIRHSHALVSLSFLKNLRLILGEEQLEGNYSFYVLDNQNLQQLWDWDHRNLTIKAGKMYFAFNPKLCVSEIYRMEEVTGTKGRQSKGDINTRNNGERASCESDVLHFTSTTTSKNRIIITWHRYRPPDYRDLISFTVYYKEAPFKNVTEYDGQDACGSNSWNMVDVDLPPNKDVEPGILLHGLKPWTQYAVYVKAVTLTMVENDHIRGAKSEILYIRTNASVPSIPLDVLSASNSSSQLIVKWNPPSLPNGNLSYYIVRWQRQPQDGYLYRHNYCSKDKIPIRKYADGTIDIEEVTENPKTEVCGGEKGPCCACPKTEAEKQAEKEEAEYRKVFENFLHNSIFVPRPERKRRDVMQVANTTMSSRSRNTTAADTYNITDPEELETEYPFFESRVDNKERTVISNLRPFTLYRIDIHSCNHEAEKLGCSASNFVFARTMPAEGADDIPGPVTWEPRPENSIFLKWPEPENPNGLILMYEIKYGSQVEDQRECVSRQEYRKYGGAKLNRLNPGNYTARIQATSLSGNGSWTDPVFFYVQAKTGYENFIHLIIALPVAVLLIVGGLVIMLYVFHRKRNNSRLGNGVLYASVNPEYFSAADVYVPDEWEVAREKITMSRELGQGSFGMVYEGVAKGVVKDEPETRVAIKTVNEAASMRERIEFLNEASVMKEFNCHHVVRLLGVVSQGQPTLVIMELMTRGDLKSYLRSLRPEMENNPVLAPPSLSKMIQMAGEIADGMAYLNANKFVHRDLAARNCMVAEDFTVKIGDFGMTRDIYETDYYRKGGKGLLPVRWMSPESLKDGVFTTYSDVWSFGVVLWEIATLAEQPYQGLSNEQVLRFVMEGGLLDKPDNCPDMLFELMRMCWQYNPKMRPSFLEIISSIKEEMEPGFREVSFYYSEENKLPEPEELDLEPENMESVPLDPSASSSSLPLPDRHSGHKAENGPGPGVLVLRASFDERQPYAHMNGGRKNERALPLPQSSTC

[5] = Homo sapiens, Rh41 cells, PDGFR inhibitors, Table 7, read-out: Rh41 IC50
[6] = Homo sapiens, Rh41-807R cells, PDGFR inhibitors, Table 7, read-out: Rh41-807R IC50
[7] = Homo sapiens, Rh41 cells, cytotoxic agents and mTOR inhibitor, Table 2, read-out: Rh41 IC50
[8] = Homo sapiens, Rh41-807R cells, cytotoxic agents and mTOR inhibitor, Table 2, read-out: Rh41-807R IC50
[9] = cytotoxic agents and mTOR inhibitor

Molecule: Cc1cc(N2CCOCC2)cc2[nH]c(-c3c(NC[C@@H](O)c4cccc(Cl)c4)cc[nH]c3=O)nc12 [BMS-536924]
IC50 (Rh41 cells; Rh41 parental cells, 72 h, 3H-thymidine incorporation, Table 1, read-out: IC50 (nM) Rh41): 31 nM
IC50 (Rh41-807R cells; Rh41-807R cells, 72 h, 3H-thymidine incorporation, Table 1, read-out: IC50 (nM) Rh41-807R): > 1000 nM
IC50 (Rh41-MAB391R cells; Rh41-MAB391R cells, 72 h, 3H-thymidine incorporation, Table 1): 90.2 ± 2.2 nM

Molecule: C[C@@]1(C(=O)Nc2ccc(F)nc2)CCCN1c1nc(Nc2cc(C3CC3)[nH]n2)c2cccn2n1 [BMS-754807, (2S)-1-(4-((5-cyclopropyl-1H-pyrazol-3-yl)amino)pyrrolo[2,1-f][1,2,4]triazin-2-yl)-N-(6-fluoro-3-pyridinyl)-2-methyl-2-pyrrolidinecarboxamide]
IC50 (SW403 cells; SW403 cells, Table 9, read-out: IGF-1R inhibitor Compound (IC50)): 220 nM
IC50 (SW403 cells; SW403 parental cells, Table 8, read-out: Parental IC50): 220 nM
resistance of Rh41-807Rout (Rh41-807Rout cells): significant level of resistance
tumor growth inhibition (TGI) [1]: 35%
tumor growth inhibition (TGI) (Rh41 xenograft tumors): 73%
IC50 (MCF-7-807R cells; Homo sapiens, MCF7): 735 nM
Relative resistance (MCF-7-807R cells; fold change in IC50, resistant vs parental MCF-7 cells): 46X
IC50 (MCF-7-807R cells; read-out: IGF-1R inhibitor Compound (IC50)): 972 ± 400 nM
IC50 (Rh41 cells; Homo sapiens, Rh41, read-out: IC50 (nM) Rh41): 5 nM
IC50 (Rh41 cells; Homo sapiens, Rh41, read-out: IGF-1R inhibitor Compound (IC50)): 5 nM
IC50 (Rh41 cells; Homo sapiens, Rh41, read-out: Parental IC50 (nM)): 5 nM
IC50 (SW403-807R cells; Homo sapiens, SW-403, BMS-754807-resistant SW403 cells, maintenance conc. 500, Table 8, read-out: IC50): 979 nM
IC50 (SW403-807R cells; SW403-807R cells, Table 9, read-out: IGF-1R inhibitor Compound (IC50)): 979 ± 528 nM
Relative resistance (SW403-807R cells; fold change in IC50, resistant vs parental SW403 cells): 4.5X
response to growth inhibition after PDGFR-α siRNA [2]: sensitive to growth inhibition
time at which induction of PDGFRα RNA was seen after treatment (PDGFRα RNA in Rh41 cells; Rh41 cells): 4 h
induction of PDGFR-α expression (PDGFRα RNA in Rh41 cells; Rh41 sensitive parental cells, 10 nM and 50 nM): dose-dependent
IC50 (Geo cells; Geo cells, Table 9, read-out: IGF-1R inhibitor Compound (IC50)): 350 nM
IC50 (Geo cells; Geo parental cells, Table 8, read-out: Parental IC50): 350 nM
IC50 (Rh41-807R cells; Homo sapiens, Rh41): 811 nM
IC50 (Rh41-807R cells; Homo sapiens, read-out: IC50 (nM) Rh41-807R): 811 nM
IC50 (Rh41-807R cells; Homo sapiens, read-out: IGF-1R inhibitor Compound (IC50)): 811 nM
Relative resistance (Rh41-807R cells; fold change in IC50, resistant vs parental Rh41 cells): 162X
sensitivity between untransfected, control siRNA and PDGFR-α-specific siRNA transfected cells [3]: no significant differences in the sensitivity
IC50 (Rh1-807R cells; Homo sapiens, RH-1, BMS-754807-resistant Rh1 cells, maintenance conc. 120, Table 8, read-out: IC50): 1800 nM
IC50 (Rh1-807R cells; Rh1-807R cells, Table 9, read-out: IGF-1R inhibitor Compound (IC50)): 1800 ± 1390 nM
Relative resistance (Rh1-807R cells; fold change in IC50, resistant vs parental Rh1 cells): 66.5X
IC50 (Rh1 cells; Rh1 cells, Table 9, read-out: IGF-1R inhibitor Compound (IC50)): 27 nM
IC50 (Rh1 cells; Rh1 parental cells, Table 8, read-out: Parental IC50): 27 nM
IC50 (Rh41-MAB391R cells; Homo sapiens): 27 nM
activity in the Rh41-MAB391R model (Rh41-MAB391R cells; growth inhibited to a comparable level as the parental cells): relatively active
IC50 (GEO-807R cells; BMS-754807-resistant Geo cells, maintenance conc. 2000, Table 8, read-out: IC50): 1230 nM
IC50 (GEO-807R cells; GEO-807R cells, Table 9, read-out: IGF-1R inhibitor Compound (IC50)): 1230 ± 251 nM
Relative resistance (GEO-807R cells; fold change in IC50, resistant vs parental Geo cells): 3.5X

Molecule: CN1CCN(c2ccc3nc(-c4c(N)c5c(F)cccc5[nH]c4=O)[nH]c3c2)CC1 [Dovitinib]
IC50 (Rh41 cells; [5]): 6456 ± 60 nM
IC50 (Rh41-807R cells; [6]): 722 ± 264 nM

Molecule: Nc1ccn([C@@H]2O[C@H](CO)[C@@H](O)C2(F)F)c(=O)n1 [Gemcitabine]
IC50 (Rh41 cells; [7]): 1.1 ± 0.4 nM
IC50 (Rh41-807R cells; [8]): 3 nM
sensitivity of Rh41-807R compared with the parental line (Rh41-807R cells; [9]): very similar level of sensitivity as the parental line

Molecule: C/C(=C\c1csc(C)n1)[C@@H]1C[C@@H]2O[C@]2(C)CCC[C@H](C)[C@H](O)[C@@H](C)C(=O)C(C)(C)[C@@H](O)CC(=O)N1 [Ixabepilone]
IC50 (Rh41 cells; [7]): 4 nM
IC50 (Rh41-807R cells; [8]): 3.4 ± 0.4 nM

Molecule: CO[C@H]1C[C@@H]2CC[C@@H](C)[C@@](O)(O2)C(=O)C(=O)N2CCCC[C@H]2C(=O)O[C@H]([C@H](C)C[C@@H]2CC[C@@H](O)[C@H](OC)C2)CC(=O)[C@H](C)/C=C(\C)[C@@H](O)[C@@H](OC)C(=O)[C@H](C)C[C@H](C)/C=C/C=C/C=C/1C [Rapamycin]
IC50 (Rh41 cells; [7]): < 0.32 nM
IC50 (Rh41-807R cells; [8]): < 0.32 nM

Molecule: CNC(=O)c1cc(Oc2ccc(NC(=O)Nc3ccc(Cl)c(C(F)(F)F)c3)cc2)ccn1 [Sorafenib]
IC50 (Rh41 cells; [5]): > 2000 nM
IC50 (Rh41-807R cells; [6]): 804 ± 210 nM

Molecule: CCN(CC)CCNC(=O)c1c(C)[nH]c(/C=C2\C(=O)Nc3ccc(F)cc32)c1C [Sunitinib]
IC50 (Rh41 cells; [5]): 1400 ± 634 nM
IC50 (Rh41-807R cells; [6]): 1020 ± 321 nM

Molecule: CC(=O)O[C@H]1C(=O)[C@@]2(C)[C@H]([C@H](OC(=O)c3ccccc3)[C@]3(O)C[C@H](OC(=O)[C@H](O)[C@@H](NC(=O)c4ccccc4)c4ccccc4)C(C)=C1C3(C)C)[C@]1(OC(C)=O)CO[C@@H]1C[C@@H]2O [TAXOL ®, paclitaxel]
IC50 (Rh41 cells; [7]): 2.1 ± 0.4 nM
IC50 (Rh41-807R cells; [8]): 1.8 ± 0.3 nM
sensitivity of Rh41-807R compared with the parental line (Rh41-807R cells; [9]): very similar level of sensitivity as the parental line

Molecule: CC(=O)O[C@@]12CO[C@@H]1C[C@H](O)[C@@]1(C)C(=O)[C@H](O)C3=C(C)[C@@H](OC(=O)[C@H](O)[C@@H](NC(=O)OC(C)(C)C)c4ccccc4)C[C@@](O)([C@@H](OC(=O)c4ccccc4)[C@H]21)C3(C)C [Taxotere]
IC50 (Rh41 cells; [7]): 0.5 nM
IC50 (Rh41-807R cells; [8]): 0.5 nM

Molecule: CC[C@]12C=CCN3CC[C@@]4(c5cc([C@@]6(C(=O)OC)C[C@@H]7C[C@@H](C(C)(F)F)CN(Cc8c6[nH]c6ccccc86)C7)c(OC)cc5N(C)[C@H]4[C@@](O)(C(=O)OC)[C@@H]1OC(C)=O)[C@@H]32 [Vinflunine]
IC50 (Rh41 cells; Homo sapiens, Rh41, read-out: Rh41 IC50 (nM)): 28 ± 2.8 nM
IC50 (Rh41-807R cells; Homo sapiens, read-out: Rh41-807R IC50 (nM)): 21 ± 3 nM

IC50 (nM), growth inhibition of Rh41-807R cells, 3H-thymidine incorporation, 72 h [4]: > 2000 nM
IC50 (nM), growth inhibition of Rh41-MAB391R cells, 3H-thymidine incorporation, 72 h [4]: > 2000 nM
IC50 (nM), growth inhibition of Rh41 parental cells, 3H-thymidine incorporation, 72 h [4]: 0.1 nM
Molecule: MAB391 (R&D Systems), IGF-1R neutralizing antibody
